These results are taken from patent publication US20150368248A1, “2-SUBSTITUTED-6-BIARYLMETHYLAMINO-9-CYCLOPENTYL-9H-PURINE DERIVATIVES, USE THEREOF AS MEDICAMENTS, AND PHARMACEUTICAL COMPOSITIONS” (UNIVERZITA PALACKEHO V OLOMOUCI, priority 2013, published 2015).

The structures appear in SMILES notation. Read-outs that look alike come from different tables or passages of the source.

The subject of data set [1] is HepG2. The experiment in a line: MTT cytotoxicity assay (Example 30). Conditions: Homo sapiens. Format: cell-based. The text has this: Cytotoxicity of the compounds is the major property determining their anticancer effect in vivo. One of the parameters used, as the basis for cytotoxicity assays, is the metabolic activity of viable cells. For example, a microtiter assay, which uses (3-(4,5-Dimethylthiazol-2-yl)-2,5-diphenyltetrazolium bromide (MTT), is widely used to quantitate cell proliferation and cytotoxicity. For instance, this assay is used in drug screening programs and in chemosensitivity testing. Because only metabolically active living cells reduce MTT to correspond purple formazan dye, these assays detect viable cells exclusively. The quantity of reduced MTT corresponds to the number of vital cells in the culture.
(§1) We have been using the following cell lines: HUH-7 and PLC/PRF/5 cell lines were maintained in DMEM supplemented with 10% fetal bovine serum, penicillin (100 U/ml) and streptomycin (100 μg/ml). Unique HCC-1.2 (3p) and HCC-1.1 (3sp) cell lines (Zilj et al., 2009, Future Oncol, 5(8):1169-79) and Hep3B cells were cultivated in RPMI supplemented with 10% fetal bovine serum, penicillin (100 U/ml) and streptomycin (100 μg/ml). HepG2 cell line was maintained in EMEM supplemented with 10% fetal bovine serum, sodium pyruvate (0.11 g/1), penicillin (100 U/ml) and streptomycin (100 μg/ml). All cell lines were cultivated at 37° C. in 5% CO2. For cytotoxicity assays, 3000 cells (10000 cells in case of HepG2 cell line) were seeded into each well of 96 well plate and the next day tested compounds were added at various concentrations in triplicates. Three days after drug addition MTT stock solution (5 mg/ml) was added into each well and incubated for 4 h. After this incubation period, produced formazan was dissolved by DMSO and final absorbance was measured at 570 nm with Synergy H4 Hybrid Multi-Mode Microplate Reader.
For orientation: Tetrazolium assays rely on reduction of a dye to a coloured formazan, in cell work by metabolically active cells.

Data set [2] has as its system HUH-7. Nature of the data set: MTT cytotoxicity assay (Example 30). Format: cell-based. Conditions: Homo sapiens. How it is done: (§2) Cytotoxicity of the compounds is the major property determining their anticancer effect in vivo. One of the parameters used, as the basis for cytotoxicity assays, is the metabolic activity of viable cells.
as §1, with “Unique HCC-1.2 (3p) and HCC-1.1 (3sp) cell lines (Zilj et al., 2009, Future Oncol, 5(8):1169-79) and Hep3B cells were cultivated in RPMI supplemented with 10% fetal bovine serum, penicillin (100 U/ml) and streptomycin (100 μg/ml).” left out

Data set [3] deals with HCC-1.2 (3p). Nature of the data set: MTT cytotoxicity assay (Example 30). Format: cell-based. Conditions: Homo sapiens. How it is done: as §2
as §1, with “Unique HCC-1.2 (3p) and HCC-1.1 (3sp) cell lines (Zilj et al., 2009, Future Oncol, 5(8):1169-79) and Hep3B cells were cultivated in RPMI supplemented with 10% fetal bovine serum, penicillin (100 U/ml) and streptomycin (100 μg/ml).” left out

Data set [4] has as its system HCC-1.1 (3sp). Nature of the data set: MTT cytotoxicity assay (Example 30). Conditions: Homo sapiens. Format: cell-based. As to the method:
as §2
as §1, with “Unique HCC-1.2 (3p) and HCC-1.1 (3sp) cell lines (Zilj et al., 2009, Future Oncol, 5(8):1169-79) and Hep3B cells were cultivated in RPMI supplemented with 10% fetal bovine serum, penicillin (100 U/ml) and streptomycin (100 μg/ml).” left out

In data set [5] the test system is PLC/PRF/5. The experiment in a line: MTT cytotoxicity assay (Example 30). Format: cell-based. The following applies: Homo sapiens. How it is done:
as §2
as §1, with “Unique HCC-1.2 (3p) and HCC-1.1 (3sp) cell lines (Zilj et al., 2009, Future Oncol, 5(8):1169-79) and Hep3B cells were cultivated in RPMI supplemented with 10% fetal bovine serum, penicillin (100 U/ml) and streptomycin (100 μg/ml).” left out

Data set [6] relates to Hep3B. Nature of the data set: MTT cytotoxicity assay (Example 30). Format: cell-based, human. The following applies: Homo sapiens, Hep3B. How it is done: as §2
as §1, with “Unique HCC-1.2 (3p) and HCC-1.1 (3sp) cell lines (Zilj et al., 2009, Future Oncol, 5(8):1169-79) and Hep3B cells were cultivated in RPMI supplemented with 10% fetal bovine serum, penicillin (100 U/ml) and streptomycin (100 μg/ml).” left out

In data set [7] the test system is human umbilical vein endothelial cells (HUVEC). Nature of the data set: HUVEC proliferation, Calcein AM. Conditions: Homo sapiens, HUVEC, read-out: Inhibitory concentration for HUVEC cells - IC50. Format: cell-based. As to the method:
Novel 2-substituted-6-biarylmethylamino-9-cyclopentyl-9H-purine derivatives were tested for their potential anti-angiogenic properties; we analyzed its influence on the proliferation (Tab. 9), migration and tube formation of human umbilical vein endothelial cells (HUVEC). Confluent HUVECs were seeded in 96-well microtiter plates to detect their proliferation for 24 or 72 h using Calcein AM solution (Invitrogen) and a Fluoroskan Ascent microplate reader (Labsystems) as described previously (Krystof et al., 2011, Eur J Med Chem. 2011 September; 46(9):4289-94).

[8] abbreviates: HepG2, 72 h, MTT, three days after drug addition, read-out: Inhibitory concentration IC50, HepG2.
Setting [9] is: Huh-7, 72 h, MTT, three days after drug addition, read-out: Inhibitory concentration IC50, HUH-7.
The mark [10] stands for this setting: HCC-1.2, 72 h, MTT, three days after drug addition, read-out: Inhibitory concentration IC50, 3p.
Where [11] appears, read: 72 h, MTT, three days after drug addition, read-out: Inhibitory concentration IC50, 3sp.
[12] abbreviates: PLC-PRF-5, 72 h, MTT, three days after drug addition, read-out: Inhibitory concentration IC50, PLC/PRF/5.
[13] abbreviates: 72 h, MTT, three days after drug addition, read-out: Inhibitory concentration IC50, Hep3B.
The mark [14] stands for this setting: HepG2, Table 3, read-out: Inhibitory concentration IC50, HepG2 (reference molecules).
Where [15] appears, read: Huh-7, Table 3, read-out: Inhibitory concentration IC50, HUH-7 (reference molecules).
Setting [16] is: HCC-1.2, Table 3, read-out: Inhibitory concentration IC50, AKH3p (reference molecules).
Where [17] appears, read: Table 3, read-out: Inhibitory concentration IC50, AKH3sp (reference molecules).
[18] abbreviates: PLC-PRF-5, Table 3, read-out: Inhibitory concentration IC50, PLC/PRF/5 (reference molecules).
Setting [19] is: Table 3, read-out: Inhibitory concentration IC50, Hep3B (reference molecules).

One may read the melting point as the temperature of the solid-liquid transition. With `NC1CCC(Nc2nc(NCc3ccc(Br)nc3)c3ncn(C4CCCC4)c3n2)CC1` (centres unmarked) [BP110, N^2-(4-amino-cyclohexyl)-N^6-(6-bromo-pyridin-3-ylmethyl)-9-cyclopentyl-9H-purine-2,6-diamine], the melting point fell in the range of 114 to 116 °C. Besides, the IC50 in data set [1] (setting [8]) is above 1 µM. For the same compound, the IC50 in data set [2] (setting [9]) stood at 0.513 µM. For the same compound, the IC50 in data set [3] (setting [10]) stood at 0.334 µM. For the same compound, the IC50 in data set [4] (setting [11]) turned out to be 0.515 µM. The IC50 in data set [5] (setting [12]) amounted to 0.4 µM. Moreover, in data set [6] (setting [13]), the IC50 amounted to 0.488 µM.
Consider `CNC(=O)c1cc(Oc2ccc(NC(=O)Nc3ccc(Cl)c(C(F)(F)F)c3)cc2)ccn1` [sorafenib, reference compound], for which the IC50 in data set [1] (setting [14]) is 5.85 µM; in data set [7] (24 h), above 50 µM; in data set [7] (72 h) it was above 10 µM; in data set [2] (setting [15]), 2.86 µM; in data set [3] (setting [16]), 4.42 µM; in data set [4] (setting [17]), 6.39 µM. Besides, the IC50 in data set [5] (setting [18]) is 4.06 µM; in data set [6] (setting [19]), 3.74 µM.
With `NC1CCC(Nc2nc(NCc3ccc(Br)cc3)c3ncn(C4CCCC4)c3n2)CC1` (centres unmarked) [BP102, N^2-(4-amino-cyclohexyl)-N^6-(4-bromo-benzyl)-9-cyclopentyl-9H-purine-2,6-diamine], the IC50 in data set [1] (setting [8]) is above 1 µM; in data set [2] (setting [9]) it was 0.386 µM; in data set [3] (setting [10]) it was 0.492 µM; in data set [4] (setting [11]), 0.441 µM; in data set [5] (setting [12]), 0.644 µM; in data set [6] (setting [13]) it was 0.268 µM.
For the compound `COc1cccc2c1C(=O)c1c(O)c3c(c(O)c1C2=O)C[C@@](O)(C(=O)CO)C[C@@H]3O[C@H]1C[C@H](N)[C@H](O)[C@H](C)O1` [doxorubicin, reference compound], the IC50 in data set [1] (setting [14]) is 1.38 µM; in data set [7] (24 h) it was above 6.6 µM; in data set [7] (72 h), above 6.6 µM; in data set [2] (setting [15]), 1.25 µM; in data set [3] (setting [16]) it was 0.54 µM; in data set [4] (setting [17]), 0.27 µM. Besides, the IC50 in data set [5] (setting [18]) is 0.67 µM; in data set [6] (setting [19]), 0.46 µM.
